Two compounds from publication PMC4999848 (Toxins, 2016) can be followed below.

Structures are written as SMILES. Where “and” joins values, the source holds several entries; their conditions need not be identical. Identical values can stand only once.

The test system of one data set is colonic explant. In words: Deacetylation of 3/15ADON by human colonic explants. Format: in vitro ADME. The following applies: for Disappearance of 3/15ADON, specific activity: colonic explant, 37 °C, substrate 100 μM; for % of deacetylation: colonic explants, 6 h incubation, 100 μM; for Contribution to total deacetylation activity: Colon: percentage of sum of specific activities (Figure 8). From the text: Human tissue samples were obtained from patients undergoing surgery at the Hospital Nord of Marseille, unit of general and gastrointestinal surgery according to a collaborative “clinical transfer” project. The procedures were approved by the French ethic committee (CODECOH n° DC-2011-1319). Patients were from both genders (six men, three women), 31–74 years of age, all of European origin. All patients agree to use their tissues for research purposes. Samples were taken from macroscopically unaffected area as identified by the surgeon for intestinal samples or the pathologist for liver resections. Diagnoses leading to surgery were carcinoma for intestine or liver. After resection, the specimens were placed in ice-cold non-sterile Krebs solution implemented and transferred to the school of medicine on the same campus within 5 min, composition of the Krebs solution being previously described. The tissues were rinsed several times and maintained in oxygenated Krebs during 1 h for recovery before final dissection. Intestinal and hepatic resections were extensively washed and maintained in ice-cold culture media containing 1% streptomycin/penicillin solution and 50 μg/mL gentamycin. Tissues were cleaned from vascular vessels and conjunctive tissue using forceps under binocular microscope. In case of intestinal resection, muscularis and plexus were removed and only epithelial layer was kept. Intestinal and hepatic explants (wet weight of 20–30 mg) were then isolated from the cleaned resections using surgical punch (diameter of […]). […] Finally, the explants were washed 3 times with PBS^++ and transferred into 6-well plates before being used for deacetylation assay.
(§1) Stock solutions of DON, 3ADON and 15ADON at 2 mg/mL were prepared in absolute ethanol and stored at −20 °C. For deacetylation assay, 3- or 15ADON were incubated with cells, explants, bacteria or digestive enzymes after being diluted in PBS^++ at a final concentration of 100 μM. PBS^++ solution containing only ethanol (at 1.5% final concentration) or DON (at 100 μM) were used in parallel as negative and positive control, respectively. For cells and explants, deacetylation assay take place in 6-well plates, wells being filled with 2 mL of PBS^++ containing either ethanol, DON, 3- or 15ADON. For fecal bacteria and digestive enzyme assay, deacetylation assay was conducted in 2 mL Eppendorf tubes filled with 1.5 mL of PBS^++ containing either ethanol, DON, 3- or 15ADON. In vitro intestinal digestion by luminal enzymes was performed using porcine enzymes from Sigma-Aldrich and physiological conditions. Briefly, 3- or 15ADON were incubated with pepsin (at 1.6 mg/mL corresponding to 900 U/mL), trypsin (at 0.35 mg/mL corresponding to 6000 U/mL), pancreatic lipase (at 0.75 mg/mL corresponding to 18 U/mL) or pancreatin (at 1.23 mg/mL, lipase activity >10 U/mL, protease activity >100 U/mL, amylase activity >100 U/mL). Except for pepsin for which the digestion was conducted in HCl solution at 10 mM (pH 2.3), in vitro digestion was performed in PBS^++ (pH 7.4). Finally, deacetylation assay was also performed with commercial pooled S9 fractions from human liver, small intestine and kidneys as well as with pure recombinant human CES1 and CES2. S9 fractions and CES1/2 were used at 0.1 mg/mL and 5 μg/mL (corresponding to CES activity >20 U/mL), respectively. In all cases, aliquots of the reaction solution were collected immediately (i.e., “time zero” sample) or after the indicated time period at 37 °C and analyzed by HPLC. […] In all cases, the experiments were conducted in triplicate (n = 3).

Another data set concerns pancreatin. In words: Deacetylation of 3/15ADON by pancreatin. Format: in vitro ADME, porcine. The following applies: pancreatin 1.23 mg/mL, PBS pH 7.4, 37 °C, substrate 100 μM. As to the method:
Stock solutions of DON, 3ADON and 15ADON at 2 mg/mL were prepared in absolute ethanol and stored at −20 °C. For deacetylation assay, 3- or 15ADON were incubated with cells, explants, bacteria or digestive enzymes after being diluted in PBS^++ at a final concentration of 100 μM. PBS^++ solution containing only ethanol (at 1.5% final concentration) or DON (at 100 μM) were used in parallel as negative and positive control, respectively. For cells and explants, deacetylation assay take place in 6-well plates, wells being filled with 2 mL of PBS^++ containing either ethanol, DON, 3- or 15ADON. For fecal bacteria and digestive enzyme assay, deacetylation assay was conducted in 2 mL Eppendorf tubes filled with 1.5 mL of PBS^++ containing either ethanol, DON, 3- or 15ADON. In vitro intestinal digestion by luminal enzymes was performed using porcine enzymes from Sigma-Aldrich and physiological conditions. […] In all cases, aliquots of the reaction solution were collected immediately (i.e., “time zero” sample) or after the indicated time period at 37 °C and analyzed by HPLC. […]
Deacetylation was monitoring both in term of disappearance of 3- or 15ADON and formation of DON. […] Quantification was based on calibration with the corresponding standard using Millinium Software (Waters, Saint Quentin Falavier, France).

Data set [1] in a line: Deacetylation of 3/15ADON by small intestine S9 fraction. Format: in vitro ADME, human. As to the method:
as §1
Deacetylation was monitoring both in term of disappearance of 3- or 15ADON and formation of DON. Measurement of DON, 3ADON and 15ADON concentrations was performed by reversed-phase HPLC using Waters Alliance System equipped with a Waters 2690 XE separation module and a Waters 996 photodiode array detector (Waters, Saint Quentin Falavier, France). The separation was achieved by mean of a LiChroCart column (125 mm × 4 mm) packed with 5 μm RP-18 Purospher gel (Merck, Darmstadt, Germany) and equipped with a LiChroCart precolumn (4 mm × 4 mm) packed with the same material (Merck). The precolumn and column were placed in room temperature. The elution procedure was carried out at 0.7 mL·min^−1 by a methanol–water solvent, using the following conditions: 40% methanol during 2 min followed by an increase in methanol to 50% at 2.1 min. The detection wavelength was set at 237 nm allowing the best signal/baseline ratio for simultaneous detection of the three DON forms in the incubation mediums. Under these conditions, DON and 3/15ADON were clearly separated, the retention time being around 2.7 min and 5.7 min, for DON and 3/15ADON, respectively (Figure 9). Quantification was based on calibration with the corresponding standard using Millinium Software (Waters, Saint Quentin Falavier, France).

For a further data set, the system named is T84 cells. In words: Deacetylation of 3/15ADON by T84 cells. Format: in vitro ADME, human. The following applies: T84, 37 °C, substrate 100 μM. Here is the method:
(§2) A498, Caco-2, T84 and HepG2 cells were used as models of human renal, small intestinal, colonic and hepatic cells, respectively. Cells were routinely grown in culture media (Dulbecco’s Modified Eagle Medium (DMEM), DMEM:F12 mixture and Minimum Essential Media (MEM) for A498/Caco-2, T84 and HepG2 cells, respectively) supplemented with 10% fetal calf serum and 1% antibiotics (streptomycin–penicillin solution). Cells were grown in 25 cm^2 ventilated flask maintained at 37 °C in a 5% CO2 incubator. Cells were routinely passed using trypsin-EDTA solution. For deacetylation experiments, cells were seeded onto 6-well plates at an initial density of 200,000 cells/cm^2. HepG2 and A498 were used 3–4 days post-seeding when confluence was reached. Caco-2 and T84 cells were let to differentiate for 10–14 days post-seeding before being used. In all cases, cells were washed three times with sterile phosphate buffer saline PBS^++ (PBS containing 100 mg/L of calcium and magnesium salts) before deacetylation assay.
(§3) Stock solutions of DON, 3ADON and 15ADON at 2 mg/mL were prepared in absolute ethanol and stored at −20 °C. […] In all cases, aliquots of the reaction solution were collected immediately (i.e., “time zero” sample) or after the indicated time period at 37 °C and analyzed by HPLC. […]

The test system of another data set is A498 cells. Put plainly: Deacetylation of 3/15ADON by A498 cells. Type of data set: in vitro ADME, human. As to the method: as §2, §3
Where [2] appears, read: S9 Intestine + Benzil 100 μM (Table 1).
Where [3] appears, read: S9 small intestine 0.1 mg/mL, 37 °C, substrate 100 μM (Table 3).

Regarding `CC(=O)O[C@@H]1C[C@]2(C)[C@@]3(CO)[C@H](O)C(=O)C(C)=C[C@H]3O[C@H]1[C@@]21CO1` [3ADON, 3-acetyldeoxynivalenol], the “Disappearance of 3/15ADON, specific activity” value (“Disappearance of 3/15ADON” for short) in the data set with colonic explant is 22 ± 13 pmol/min/mg; in the data set on pancreatin, 24 ± 16 pmol/min/mg; in data set [1] (setting [2]), 875 ± 83 pmol/min/mg; in data set [1] (S9 Intestine, without benzil (Table 1)), 1166 ± 110 pmol/min/mg; in data set [1] (setting [3]) it was 1250 pmol/min/mg and 1250 ± 79 pmol/min/mg; in the data set with T84 cells, 80 pmol/min/mg and 80 ± 24 pmol/min/mg. For the same compound, the “Disappearance of 3/15ADON” value in the data set on A498 cells (A498, 37 °C, substrate 100 μM) is 79 pmol/min/mg and 79 ± 46 pmol/min/mg. Moreover, in the data set on colonic explant, the “% of deacetylation” value is reported as 4.2% ± 3.1%. In addition, the “Contribution to total deacetylation activity: Colon” value in the data set with colonic explant came to 1.7%.
For the compound `CC(=O)OC[C@]12[C@H](O)C(=O)C(C)=C[C@H]1O[C@@H]1[C@H](O)C[C@@]2(C)[C@]12CO2` [15ADON, 15-acetyldeoxynivalenol], the “Disappearance of 3/15ADON” value in the data set on colonic explant was 4.5 pmol/min/mg and 4.5 ± 5.6 pmol/min/mg; in the data set on pancreatin, 26 ± 17 pmol/min/mg; in data set [1] (setting [2]), 171 ± 79 pmol/min/mg; in data set [1] (setting [3]), 166 pmol/min/mg and 166 ± 20 pmol/min/mg; in the data set with T84 cells it was 98 pmol/min/mg and 98 ± 29 pmol/min/mg. In the data set on colonic explant, the “% of deacetylation” value is recorded as 0.2% ± 1.2%. Moreover, the “Contribution to total deacetylation activity: Colon” value in the data set on colonic explant was determined as 0.7%. The “Activity of renal cells on 15ADON” value with A498 cells (in words) was “virtually inactive”.
